Test system: 958667-338-R-J2-PDC tumor spheroids viability
Assay: Anticancer human tumor 958667-338-R-J2-PDC patient-derived colon adenocarcinoma cell line growth inhibition [PI3K]
Settings: spheroids with HUVEC and MSC; for IC50: curve of first compound; for viability, T/C: stronger effect = lower value
Outline: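 Targeted small molecules plus PI3K inhibitors, half-log dose series from Cmax (default top 10 microM), were applied to heterotypic spheroids of cancer cells with HUVEC and MSCs. Viability indicated growth inhibition.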

[1] = second compound 0.0316 µM, first compound 0.0316 µM
[2] = second compound 0.0316 µM, first compound 0.1 µM
[3] = second compound 0.0316 µM, first compound 0.316 µM
[4] = second compound 0.0316 µM, first compound 1 µM
[5] = second compound 0.0316 µM, first compound 3.16 µM
[6] = second compound 0.0316 µM, first compound 10 µM
[7] = second compound 0.1 µM, first compound 0.0316 µM
[8] = second compound 0.1 µM, first compound 0.1 µM
[9] = second compound 0.1 µM, first compound 0.316 µM
[10] = second compound 0.1 µM, first compound 1 µM
[11] = second compound 0.1 µM, first compound 3.16 µM
[12] = second compound 0.1 µM, first compound 10 µM
[13] = second compound 0.316 µM, first compound 0.0316 µM
[14] = second compound 0.316 µM, first compound 0.1 µM
[15] = second compound 0.316 µM, first compound 0.316 µM
[16] = second compound 0.316 µM, first compound 1 µM
[17] = second compound 0.316 µM, first compound 3.16 µM
[18] = second compound 0.316 µM, first compound 10 µM
[19] = second compound 1 µM, first compound 0.0316 µM
[20] = second compound 1 µM, first compound 0.1 µM
[21] = second compound 1 µM, first compound 0.316 µM
[22] = second compound 1 µM, first compound 1 µM
[23] = second compound 1 µM, first compound 3.16 µM
[24] = second compound 1 µM, first compound 10 µM
[25] = second compound 3.16 µM, first compound 0.0316 µM
[26] = second compound 3.16 µM, first compound 0.1 µM
[27] = second compound 3.16 µM, first compound 0.316 µM
[28] = second compound 3.16 µM, first compound 1 µM
[29] = second compound 3.16 µM, first compound 3.16 µM
[30] = second compound 3.16 µM, first compound 10 µM
[31] = second compound 10 µM, first compound 0.0316 µM
[32] = second compound 10 µM, first compound 0.1 µM
[33] = second compound 10 µM, first compound 0.316 µM
[34] = second compound 10 µM, first compound 1 µM
[35] = second compound 10 µM, first compound 3.16 µM
[36] = second compound 10 µM, first compound 10 µM
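Also: spheroids exposed to compounds for seven days before readout.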

Cn1nccc1Nc1nccc(-c2ccn(C(CO)c3ccc(Cl)c(F)c3)c(=O)c2)n1 (centres undefined) + Cc1nc(NC(=O)N2CCCC2C(N)=O)sc1-c1ccnc(C(C)(C)C(F)(F)F)c1 showed an IC50 (second compound 0.0316 µM) of over 10 µM, an IC50 (second compound 0.1 µM) of over 10 µM and an IC50 (second compound 0.316 µM) of over 10 µM. The IC50 (second compound 1 µM) was 8.05 µM, the IC50 (second compound 3.16 µM) was 3.66 µM and the IC50 (second compound 10 µM) was 1.6 µM. It also gave a viability, T/C [1] of 113%, a viability, T/C [2] of 105% and a viability, T/C [3] of 119%. It also gave a viability, T/C [4] of 101%, a viability, T/C [5] of 79.5% and a viability, T/C [6] of 77.2%. For the same compound, the viability, T/C [7] was 137%, the viability, T/C [8] was 98% and the viability, T/C [9] was 97.2%. For the same compound, the viability, T/C [10] was 79.8%, the viability, T/C [11] was 75% and the viability, T/C [12] was 71.8%. It also gave a viability, T/C [13] of 99.6%, a viability, T/C [14] of 92.8% and a viability, T/C [15] of 91.3%. The viability, T/C [16] was 72%, the viability, T/C [17] was 82.2% and the viability, T/C [18] was 67.4%. For the same compound, the viability, T/C [19] was 101%, the viability, T/C [20] was 85.9% and the viability, T/C [21] was 84.5%. For the same compound, the viability, T/C [22] was 68.8%, the viability, T/C [23] was 77.8% and the viability, T/C [24] was 42.1%. It also gave a viability, T/C [25] of 65.8%, a viability, T/C [26] of 78.8% and a viability, T/C [27] of 74.6%. The viability, T/C [28] was 90.4%, the viability, T/C [29] was 56.6% and the viability, T/C [30] was 4.78%. For the same compound, the viability, T/C [31] was 68%, the viability, T/C [32] was 55.8% and the viability, T/C [33] was 67.1%. It also gave a viability, T/C [34] of 72.4%, a viability, T/C [35] of 26.9% and a viability, T/C [36] of 5.35%.
C#Cc1c(F)ccc2cc(O)cc(-c3ncc4c(N5CC6CCC(C5)N6)nc(OCC56CCCN5CC(F)C6)nc4c3F)c12 (centres undefined) + Cc1nc(NC(=O)N2CCCC2C(N)=O)sc1-c1ccnc(C(C)(C)C(F)(F)F)c1 gave an IC50 (second compound 0.0316 µM) of over 10 µM, an IC50 (second compound 0.1 µM) of over 10 µM and an IC50 (second compound 0.316 µM) of over 10 µM. It also gave an IC50 (second compound 1 µM) of 4.15 µM, an IC50 (second compound 3.16 µM) of 1.79 µM and an IC50 (second compound 10 µM) of 0.368 µM. For the same compound, the viability, T/C [1] was 82.9%, the viability, T/C [2] was 83.3% and the viability, T/C [3] was 79.5%. It also gave a viability, T/C [4] of 95.8%, a viability, T/C [5] of 67.7% and a viability, T/C [6] of 70.6%. The viability, T/C [7] was 70.9%, the viability, T/C [8] was 79.6% and the viability, T/C [9] was 93.5%. For the same compound, the viability, T/C [10] was 87.1%, the viability, T/C [11] was 76.8% and the viability, T/C [12] was 57.3%. The viability, T/C [13] was 93.9%, the viability, T/C [14] was 109% and the viability, T/C [15] was 69%. It also gave a viability, T/C [16] of 56.2%, a viability, T/C [17] of 82.1% and a viability, T/C [18] of 52.5%. For the same compound, the viability, T/C [19] was 82.8%, the viability, T/C [20] was 82.6% and the viability, T/C [21] was 67.3%. The viability, T/C [22] was 65.7%, the viability, T/C [23] was 52% and the viability, T/C [24] was 41.4%. It also gave a viability, T/C [25] of 72.1%, a viability, T/C [26] of 59.9% and a viability, T/C [27] of 75.2%. It also gave a viability, T/C [28] of 50.2%, a viability, T/C [29] of 46.1% and a viability, T/C [30] of 29.4%. It also gave a viability, T/C [31] of 60.1%, a viability, T/C [32] of 47.5% and a viability, T/C [33] of 43.9%. The viability, T/C [34] was 49.6%, the viability, T/C [35] was 34.1% and the viability, T/C [36] was 1.14%.
